Converted amounts (≈) assume the structure as drawn.
Assays:
Assay in all cases: Bacterial growth minimal inhibitory concentration (microdilution, cation-adjusted Mueller-Hinton Broth)
Assay type in all cases: cell-based
[1] = tested on: Enterococcus faecium A949; settings: multiply-resistant strain (in particular quinolone-resistant), read-out: MIC for E. faecium A949
Method: (§1) Minimal Inhibitory Concentrations (MICs; mg/L) were determined in cation-adjusted MuellerHinton Broth by a microdilution method following the description given in “Methods for Dilution Antimicrobial Susceptibility Tests for Bacteria that Grow Aerobically”, Approved standard, 7th ed., Clinical and Laboratory Standards Institute (CLSI) Document M7-A7, Wayne, Pa., USA, 2006.
(§2) All Example compounds were tested against several Gram positive and Gram negative bacteria. […] Staphylococcus aureus A798, Enterococcus faecium A949 and Acinetobacter baumanii T6474 are multiply-resistant strains (in particular quinolone-resistant), while Moraxella catarrhalis A894 is a quinolone-sensitive strain and Staphylococcus aureus ATCC29213 is a methicillin-sensitive and quinolone-sensitive strain.

[2] = tested on: Staphylococcus aureus ATCC29213; settings: methicillin-sensitive and quinolone-sensitive strain, read-out: MIC for S. aureus ATCC29213
Method: as §1, §2

[3] = tested on: Staphylococcus aureus A798; settings: multiply-resistant strain (in particular quinolone-resistant), read-out: MIC for S. aureus A798
Method: as §1, §2

[4] = tested on: Moraxella catarrhalis A894; settings: quinolone-sensitive strain
Method: as §1, §2

[5] = tested on: Acinetobacter baumanii T6474; settings: Acinetobacter baumannii, multiply-resistant strain (in particular quinolone-resistant)
Method: as §1, §2

| SMILES | MIC [1] [µg/mL] | MIC [2] [µg/mL] | MIC [3] [µg/mL] | MIC [4] [µg/mL] | MIC [5] [µg/mL] |
| --- | --- | --- | --- | --- | --- |
| O=C1CSc2ccc(-n3nc(CCCN[C@@H]4Cn5c(=O)cnc6ccc(F)c4c65)oc3=O)cc2N1 [Example 20, (S)-7-fluoro-6-{3-[5-oxo-4-(3-oxo-3,4-dihydro-2H-benzo[1,4]-thiazin-6-yl)-4,5-dihydro-[1,3,4]oxadiazol-2-yl]-propylamino}-5,6-dihydro-pyrrolo[1,2,3-de]quinoxalin-3-one] | 0.25 (≈ 0.506 µM) | ≤ 0.016 | ≤ 0.016 | 0.063 (≈ 0.127 µM) | ≤ 0.016 |
| O=C1CSc2ccc(-n3nc(CCCN[C@H]4Cn5c(=O)cnc6ccc(F)c4c65)oc3=O)cc2N1 [Example 21, (R)-7-fluoro-6-{3-[5-oxo-4-(3-oxo-3,4-dihydro-2H-benzo[1,4]-thiazin-6-yl)-4,5-dihydro-[1,3,4]oxadiazol-2-yl]-propylamino}-5,6-dihydro-pyrrolo[1,2,3-de]quinoxalin-3-one] | 0.25 (≈ 0.506 µM) | ≤ 0.016 | ≤ 0.016 | 0.063 (≈ 0.127 µM) | ≤ 0.016 |
| O=c1oc(CCCN[C@@H]2Cn3c(=O)ccc4ccc(F)c2c43)nn1-c1ccc2c(c1)OCCO2 [Example 22, (S)-1-{3-[4-(2,3-dihydro-benzo[1,4]dioxin-6-yl)-5-oxo-4,5-dihydro-[1,3,4]oxadiazol-2-yl]-propylamino}-9-fluoro-1,2-dihydro-pyrrolo[3,2,1-ij]quinolin-4-one] | > 8 | 4 (≈ 8.61 µM) | > 8 | 4 (≈ 8.61 µM) | 8 (≈ 17.2 µM) |
| O=c1oc(CCCN[C@H]2Cn3c(=O)ccc4ccc(F)c2c43)nn1-c1ccc2c(c1)OCCO2 [Example 23, (R)-1-{3-[4-(2,3-dihydro-benzo[1,4]dioxin-6-yl)-5-oxo-4,5-dihydro-[1,3,4]oxadiazol-2-yl]-propylamino}-9-fluoro-1,2-dihydro-pyrrolo[3,2,1-ij]quinolin-4-one] | > 8 | 4 (≈ 8.61 µM) | 8 (≈ 17.2 µM) | 4 (≈ 8.61 µM) | > 8 |
| O=c1oc(CCCN[C@@H]2Cn3c(=O)cnc4ccc(F)c2c43)nn1-c1ccc2c(c1)OCCO2 [Example 24, (S)-6-{3-[4-(2,3-dihydro-benzo[1,4]dioxin-6-yl)-5-oxo-4,5-dihydro-[1,3,4]oxadiazol-2-yl]-propylamino}-7-fluoro-5,6-dihydro-pyrrolo[1,2,3-de]quinoxalin-3-one] | > 8 | 2 (≈ 4.3 µM) | 8 (≈ 17.2 µM) | 4 (≈ 8.59 µM) | 4 (≈ 8.59 µM) |
| O=c1oc(CCCN[C@H]2Cn3c(=O)cnc4ccc(F)c2c43)nn1-c1ccc2c(c1)OCCO2 [Example 25, (R)-6-{3-[4-(2,3-dihydro-benzo[1,4]dioxin-6-yl)-5-oxo-4,5-dihydro-[1,3,4]oxadiazol-2-yl]-propylamino}-7-fluoro-5,6-dihydro-pyrrolo[1,2,3-de]quinoxalin-3-one] | 8 (≈ 17.2 µM) | 2 (≈ 4.3 µM) | 4 (≈ 8.59 µM) | 8 (≈ 17.2 µM) | 8 (≈ 17.2 µM) |
| CCCc1ccc(-n2nc(CCCN[C@H]3Cn4c(=O)ccc5ccc(F)c3c54)oc2=O)cc1 [Example 26, (R)-9-fluoro-1-{3-[5-oxo-4-(4-propyl-phenyl)-4,5-dihydro-[1,3,4]oxadiazol-2-yl]-propylamino}-1,2-dihydro-pyrrolo[3,2,1-ij]quinolin-4-one] | 0.5 (≈ 1.11 µM) | 0.125 (≈ 0.279 µM) | 0.5 (≈ 1.11 µM) | 0.5 (≈ 1.11 µM) | 2 (≈ 4.46 µM) |
| CCCc1ccc(-n2nc(CCCN[C@@H]3Cn4c(=O)cnc5ccc(F)c3c54)oc2=O)cc1 [Example 27, (S)-7-fluoro-6-{3-[5-oxo-4-(4-propyl-phenyl)-4,5-dihydro-[1,3,4]oxadiazol-2-yl]-propylamino}-5,6-dihydro-pyrrolo[1,2,3-de]quinoxalin-3-one] | 2 (≈ 4.45 µM) | 0.5 (≈ 1.11 µM) | 2 (≈ 4.45 µM) | 4 (≈ 8.9 µM) | 4 (≈ 8.9 µM) |
| CCOc1ccc(-n2nc(CCCN[C@@H]3Cn4c(=O)ccc5ccc(F)c3c54)oc2=O)cc1 [Example 28, (S)-1-{3-[4-(4-ethoxy-phenyl)-5-oxo-4,5-dihydro-[1,3,4]oxadiazol-2-yl]-propylamino}-9-fluoro-1,2-dihydro-pyrrolo[3,2,1-ij]quinolin-4-one] | > 8 | 2 (≈ 4.44 µM) | 4 (≈ 8.88 µM) | 8 (≈ 17.8 µM) | 4 (≈ 8.88 µM) |
| CCOc1ccc(-n2nc(CCCN[C@H]3Cn4c(=O)ccc5ccc(F)c3c54)oc2=O)cc1 [Example 29, (R)-1-{3-[4-(4-ethoxy-phenyl)-5-oxo-4,5-dihydro-[1,3,4]oxadiazol-2-yl]-propylamino}-9-fluoro-1,2-dihydro-pyrrolo[3,2,1-ij]quinolin-4-one] | > 8 | 2 (≈ 4.44 µM) | 4 (≈ 8.88 µM) | 8 (≈ 17.8 µM) | 4 (≈ 8.88 µM) |
| CCOc1ccc(-n2nc(CCCN[C@@H]3Cn4c(=O)cnc5ccc(F)c3c54)oc2=O)cc1 [Example 30, (S)-6-{3-[4-(4-ethoxy-phenyl)-5-oxo-4,5-dihydro-[1,3,4]oxadiazol-2-yl]-propylamino}-7-fluoro-5,6-dihydro-pyrrolo[1,2,3-de]quinoxalin-3-one] | 8 (≈ 17.7 µM) | 1 (≈ 2.22 µM) | 4 (≈ 8.86 µM) | 8 (≈ 17.7 µM) | 4 (≈ 8.86 µM) |

Second part, the compound after the results:

| MIC [1] [µg/mL] | MIC [2] [µg/mL] | MIC [3] [µg/mL] | MIC [4] [µg/mL] | MIC [5] [µg/mL] | SMILES |
| --- | --- | --- | --- | --- | --- |
| > 8 | 1 (≈ 2.22 µM) | 4 (≈ 8.86 µM) | 8 (≈ 17.7 µM) | 8 (≈ 17.7 µM) | CCOc1ccc(-n2nc(CCCN[C@H]3Cn4c(=O)cnc5ccc(F)c3c54)oc2=O)cc1 [Example 31, (R)-6-{3-[4-(4-ethoxy-phenyl)-5-oxo-4,5-dihydro-[1,3,4]oxadiazol-2-yl]-propylamino}-7-fluoro-5,6-dihydro-pyrrolo[1,2,3-de]quinoxalin-3-one] |
| 0.5 (≈ 1.07 µM) | 0.063 (≈ 0.135 µM) | 0.25 (≈ 0.536 µM) | 0.5 (≈ 1.07 µM) | 0.5 (≈ 1.07 µM) | CCSc1ccc(-n2nc(CCCN[C@H]3Cn4c(=O)ccc5ccc(F)c3c54)oc2=O)cc1 [Example 32, (R)-1-{3-[4-(4-ethylsulfanyl-phenyl)-5-oxo-4,5-dihydro-[1,3,4]oxadiazol-2-yl]-propylamino}-9-fluoro-1,2-dihydro-pyrrolo[3,2,1-ij]quinolin-4-one] |
| 0.5 (≈ 1.07 µM) | 0.031 (≈ 0.0663 µM) | 0.25 (≈ 0.535 µM) | 0.5 (≈ 1.07 µM) | 0.25 (≈ 0.535 µM) | CCSc1ccc(-n2nc(CCCN[C@@H]3Cn4c(=O)cnc5ccc(F)c3c54)oc2=O)cc1 [Example 33, (S)-6-{3-[4-(4-ethylsulfanyl-phenyl)-5-oxo-4,5-dihydro-[1,3,4]oxadiazol-2-yl]-propylamino}-7-fluoro-5,6-dihydro-pyrrolo[1,2,3-de]quinoxalin-3-one] |
| 8 (≈ 17.4 µM) | 2 (≈ 4.34 µM) | 4 (≈ 8.69 µM) | 1 (≈ 2.17 µM) | 4 (≈ 8.69 µM) | O=C1COc2ccc(-n3nc(CCCN[C@@H]4Cn5c(=O)ccc6cccc4c65)oc3=O)nc2N1 [Example 34, (S)-1-{3-[5-oxo-4-(3-oxo-3,4-dihydro-2H-pyrido[3,2-b][1,4]oxazin-6-yl)-4,5-dihydro-[1,3,4]oxadiazol-2-yl]-propylamino}-1,2-dihydro-pyrrolo[3,2,1-ij]quinolin-4-one] |
| 4 (≈ 8.67 µM) | 0.5 (≈ 1.08 µM) | 1 (≈ 2.17 µM) | 0.5 (≈ 1.08 µM) | 2 (≈ 4.33 µM) | O=C1COc2ccc(-n3nc(CCCN[C@@H]4Cn5c(=O)cnc6cccc4c65)oc3=O)nc2N1 [Example 35, (S)-6-{3-[5-oxo-4-(3-oxo-3,4-dihydro-2H-pyrido[3,2-b][1,4]oxazin-6-yl)-4,5-dihydro-[1,3,4]oxadiazol-2-yl]-propylamino}-5,6-dihydro-pyrrolo[1,2,3-de]quinoxalin-3-one] |
| 8 (≈ 17.3 µM) | 4 (≈ 8.67 µM) | 4 (≈ 8.67 µM) | 2 (≈ 4.33 µM) | 4 (≈ 8.67 µM) | O=C1COc2ccc(-n3nc(CCCN[C@H]4Cn5c(=O)cnc6cccc4c65)oc3=O)nc2N1 [Example 36, (R)-6-{3-[5-oxo-4-(3-oxo-3,4-dihydro-2H-pyrido[3,2-b][1,4]oxazin-6-yl)-4,5-dihydro-[1,3,4]oxadiazol-2-yl]-propylamino}-5,6-dihydro-pyrrolo[1,2,3-de]quinoxalin-3-one] |
| 4 (≈ 8.34 µM) | 0.25 (≈ 0.521 µM) | 0.25 (≈ 0.521 µM) | 0.125 (≈ 0.261 µM) | 2 (≈ 4.17 µM) | O=C1COc2ccc(-n3nc(CCCN[C@@H]4Cn5c(=O)ccc6ncc(F)c4c65)oc3=O)nc2N1 [Example 37, (S)-3-fluoro-4-{3-[5-oxo-4-(3-oxo-3,4-dihydro-2H-pyrido[3,2-b][1,4]oxazin-6-yl)-4,5-dihydro-[1,3,4]oxadiazol-2-yl]-propylamino}-4,5-dihydro-pyrrolo[3,2,1-de][1,5]naphthyridin-7-one] |
| 4 (≈ 8.34 µM) | 0.5 (≈ 1.04 µM) | 0.5 (≈ 1.04 µM) | 0.5 (≈ 1.04 µM) | 2 (≈ 4.17 µM) | O=C1COc2ccc(-n3nc(CCCN[C@H]4Cn5c(=O)ccc6ncc(F)c4c65)oc3=O)nc2N1 [Example 38, (R)-3-fluoro-4-{3-[5-oxo-4-(3-oxo-3,4-dihydro-2H-pyrido[3,2-b][1,4]oxazin-6-yl)-4,5-dihydro-[1,3,4]oxadiazol-2-yl]-propylamino}-4,5-dihydro-pyrrolo[3,2,1-de][1,5]naphthyridin-7-one] |
| 8 (≈ 16.3 µM) | 1 (≈ 2.04 µM) | 2 (≈ 4.08 µM) | 1 (≈ 2.04 µM) | 1 (≈ 2.04 µM) | COc1ccc2ccc(=O)n3c2c1[C@H](NCCCc1nn(-c2ccc4c(n2)NC(=O)CO4)c(=O)o1)C3 [Example 39, (S)-9-methoxy-1-{3-[5-oxo-4-(3-oxo-3,4-dihydro-2H-pyrido[3,2-b][1,4]oxazin-6-yl)-4,5-dihydro-[1,3,4]oxadiazol-2-yl]-propylamino}-1,2-dihydro-pyrrolo[3,2,1-ij]quinolin-4-one] |

Source: patent US9487516B2, “Antibacterial oxadiazolone derivatives” (priority 2013, dated 2016)
